Data taken from patent US9115061B2, “Naphthalene-based inhibitors of anti-apoptotic proteins” (BURNHAM INSTITUTE FOR MEDICAL RESEARCH, priority 2007, dated 2015).
pEC50, pIC50: −log10 of the molar value.

How the values were obtained:
RS11846 cell line = experiment: Apoptosis, Annexin V and propidium iodide assay; assay type: cell-based, human; settings: 1-2 days; read-out: RS11846 EC50 (Annexin V- and propidium iodide assay)
Description: The apoptotic activity of the compounds against RS11846 cells was assessed by staining with Annexin V- and propidium iodide (PI). Lymphoma cell line, RS11846, was cultured in RPMI 1640 medium (Mediatech Inc., Herndon, Va. 20171) containing 10% fetal bovine serum (Mediatech Inc., Herndon, Va. 20171) and Penicillin/Streptomycin (Mediatech Inc., Herndon, Va. 20171). […] The percentage of viable cells was determined by FITC-Annexin V- and propidium iodide (PI)-labeling, using an Apoptosis Detection kit (BioVision Inc.), and analyzing stained cells by flow cytometry (FACSort; Bectin-Dickinson, Inc.; Mountain View, Calif.). Cells that were annexin-V-negative and PI-negative were considered viable.

BCL-2 transgenic mice = experiment: Oral efficacy study in BCL-2 transgenic mice (splenomegaly); assay type: in vivo, mouse; settings: QDX5 for 3 weeks
Description: The transgene was propagated on the Balb/c background.
Spleens were removed and weighed.
Spleens were excised from sacrificed mice and cell suspensions treated with a mouse erythrocyte lysing kit (R & D Systems). Total splenocyte count was determined by typan blue dye exclusion assays using hemocytometers. The percentage of B-lymphocytes was determined by fluorescence activated cell sorter (FACS) analysis SACS-CANTO, Bectin-Dickinson Inc., Mountain View, Calif.) following staining cells with Phyco-Erytrin (PE)-conjugated anti-CD19 or -B220 antibodies (Becton Dickinson, San Jose, Calif. 95131).
Representative data are shown by FIGS. 11A and 11B.

MCF7 cells = experiment: XTT dye reduction assay; assay type: cell-based, human; settings: three days, read-out: IC50, cell viability MCF7
Description: (§1) The effects of the compounds on viability of tumor cells in culture were monitored by using XTT assays with MCF7 and ZR75-1 cell lines. MCF7 cells were grown in DMEM containing 10% fetal bovine serum, penicillin/streptomycin, supplemented with 10^−10 M insulin, 1 mM sodium pyruvate and glutamine. ZR75-1 cells were grown in RPMI containing 10% fetal bovine serum, penicillin/streptomycin, supplemented with HEPES buffer, 1 mM sodium pyruvate and glutamine. Cells were regularly tested for mycoplasma contamination. Cells were seeded triplicates at an initial cell density of 1,000 cells per well. Blank wells received no cells.
(§2) Relative numbers of viable cells was determined by XTT assay. Briefly, in a 96-well plate, we added 50 μl of a mixture of 1 mg/ml of XTT (2,3-bis(2-methoxy-4-nitro-5-sulfophenyl)-5-[(phenylamino)carbonyl]-2H-tetrazolium hydroxide) (Polysciences, Washington, Pa.) containing 0.025 mM PMS (phenazine methosulfate) to each well. The 96-well plates were reincubated for an additional 4 hours to allow for XTT formazan production. Then, the contents of each plate were mixed and optical densities were determined at a wavelength of 450 nm (OD450). Net OD450 was determined after subtracting OD450 of blank wells. Low-passage HeLa cells (between passage number 10 and 20) were transfected with pcDNA3-BCL-XL or control pcDNA3 plasmids using Lipofectamine Plus reagent (Invitrogen) and selected in medium containing 800 μg/ml of G418. Immunoblot analysis of BCL-XL was accomplished as previously described.

ZR75-1 cells = experiment: XTT dye reduction assay; assay type: cell-based, human; settings: three days, read-out: IC50, cell viability ZR75-1
Description: as §1, §2

BIR3 domain of XIAP = BIR3 domain of XIAP (Homo sapiens (Human), UniProt P98170); experiment: Reactivity test by [15N,1H]-correlation NMR; settings: 1 mM gossypol, 200 μM BIR3, two hours
Description: Pure polyphenols were obtained from SIGMA (gossypol and purpurogallin) and/or from Microsource Discovery Systems (Purpurogallin derivatives). Reference compounds were obtained from Chembridge Corp. (San Diego). Gossypol was tested as a racemic mixture of (+) and (−) isomers. Compounds were dissolved in DMSO at 100 mM concentration and stored at −20 DC. NMR analysis was periodically performed on the compounds as a quality control, prior to further dilution for binding and displacement assays.

Chain of BIR3 domain of XIAP (P98170 241-356): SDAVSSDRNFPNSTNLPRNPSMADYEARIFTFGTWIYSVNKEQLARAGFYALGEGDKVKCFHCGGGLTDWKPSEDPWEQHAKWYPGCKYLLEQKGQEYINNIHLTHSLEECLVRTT

Cc1cc2c(C(C)C)c(O)c(O)c(C=O)c2c(O)c1-c1c(C)cc2c(C(C)C)c(O)c(O)c(C=O)c2c1O [Gossypol, gossypol]
pEC50 (RS11846 cell line): 5.37 | tolerability, low dose (BCL-2 transgenic mice; 0.06 mmol/kg oral): well tolerated | shrinkage of spleen, low dose (BCL-2 transgenic mice; 0.06 mmol/kg oral, wet weight and B-cell count): induced shrinkage of spleen to a considerable extent but not significantly | tolerability, high dose (BCL-2 transgenic mice; […] oral): not tolerated | pIC50 (MCF7 cells): 4.88 | pIC50 (ZR75-1 cells): 5.08 | reactivity with 15N-labeled BIR3, spectrum versus apo-Bir3 (BIR3 domain of XIAP): No appreciable differences
